Several values for one entry are separate records, joined by “and”; a condition that tells them apart may be missing. Identical values can stand only once.
Columns and labels:
[1] = Cytotoxicity assay, positive control (cell line not stated); assay type: cell-based; conditions: human
[2] = system: two respiratory isolates (carrying NDM-5 and TEM-OSBL) from Russia in 2019; conditions: both isolates, reported to be resistant to cefiderocol; cited from earlier work
[3] = system: K. pneumoniae; experiment: MIC by broth microdilution (CLSI) against K. pneumoniae; assay type: cell-based, Klebsiella pneumoniae
Experimental: (§1) MIC tests were performed by broth microdilution in-line with CLSI susceptibility testing standards ([20], [21]) either in-house or at IHMA (Europe and USA) or JMI Laboratories using cation-adjusted Mueller Hinton Broth.

[4] = system: E. coli; experiment: MIC by broth microdilution (CLSI) against E. coli; assay type: cell-based, Escherichia coli
Experimental: as §1

[5] = 15 clinical MDR NDM isolates (NDM-1, NDM-4, NDM-5) from India (2018)
[6] = 100 MDR clinical isolates incl. ESBL and CRE

CSc1ccc2c(c1)N(CCC1CCCCN1C)c1ccccc1S2 (centres unmarked) [Thioridazine]
IC50 at 24 h [1]: 22.1 µM and 8.19 µg/mL

CC(C)(O/N=C(\C(=O)N[C@@H]1C(=O)N2C(C(=O)[O-])=C(C[N+]3(CCNC(=O)c4ccc(O)c(O)c4Cl)CCCC3)CS[C@H]12)c1csc(N)n1)C(=O)O [cefiderocol]
MIC [2]: > 64 µg/mL

Colistin [reference compound]
MIC Range K. pneumoniae (NDM) [3, 5]: 1 to 32 µg/mL
MIC50 K. pneumoniae [3, 6]: 0.5 µg/mL
MIC90 K. pneumoniae [3, 6]: 16 µg/mL
MIC ([3]; K. pneumoniae NCTC 13438 (MDR, Class A KPC)): 1.56 µM and 1.80 µg/mL
MIC Range E. coli (NDM) [4, 5]: 0.5 to 1 µg/mL
MIC50 E. coli [4, 6]: 0.5 µg/mL
MIC90 E. coli [4, 6]: 0.5 µg/mL
MIC range E. coli [4, 6]: 0.25 to 8 µg/mL
MIC ([4]; E. coli NCTC 13441 (UPEC, MDR, CTX-M-15 ESBL)): 0.16 µM and 0.18 µg/mL

Source: article PMC10777851, “SMT-738: a novel small-molecule inhibitor of bacterial lipoprotein transport targeting Enterobacteriaceae” (Antimicrobial Agents and Chemotherapy, 2023)
